Source: ChEMBL document CHEMBL1201862, “PubChem BioAssay data set” (2004)
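48-hour exposure; five concentrations; linearly interpolated endpoints. Here, GI50 denotes the concentration required for 50% inhibition of growth.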 Activity calls are given as the source filed them. Rule as the data show it: active = GI50 up to about 1.1 µM and inactive = higher.

Legend:
Assay in all cases: NCI anticancer screen, dose series, 48 h
[1] = system: T47D
[2] = system: SR
[3] = system: NCI-H23
[4] = system: UACC-257
[5] = system: MDA-MB-231
[6] = system: IGROV-1
[7] = system: HCC 2998
[8] = system: SK-MEL-28
[9] = system: MOLT-4
[10] = system: COLO 205
[11] = system: SNB-75
[12] = system: PC-3
[13] = system: 786-0
[14] = system: HT-29
[15] = system: CAKI-1
[16] = system: K562
[17] = system: MDA-N
[18] = system: HCT-15
[19] = system: HCT-116
[20] = system: SK-MEL-5
[21] = system: OVCAR-8
[22] = system: SF-539
[23] = system: TK-10
[24] = system: SK-MEL-2
[25] = system: OVCAR-4
[26] = system: KM12
[27] = system: CCRF-CEM
[28] = system: ACHN
[29] = system: A549
[30] = system: DU-145
[31] = system: NCI/ADR-RES
[32] = system: MDA-MB-435
[33] = system: M14
[34] = system: SK-OV-3
[35] = system: HOP-62
[36] = system: SNB-19
[37] = system: SF-295
[38] = system: NCI-H460
[39] = system: MCF7
[40] = system: SN12C
[41] = system: UACC-62
[42] = system: SW-620
[43] = system: SF-268
[44] = system: OVCAR-5
[45] = system: BT-549
[46] = system: UO-31
[47] = system: A498
[48] = system: RXF 393
[49] = system: LOX IMVI
[50] = system: HOP-92
[51] = system: NCI-H226
[52] = system: OVCAR-3
[53] = system: RPMI-8226
[54] = system: EKVX
[55] = system: U-251
[56] = system: NCI-H522
[57] = system: Malme-3M
[58] = system: HL-60

SMILES: O=C1C=Cc2c(Cl)sc(Cl)c21
- GI50 [1]: 1.81 µM (inactive)
- GI50 [2]: 0.347 µM (active)
- GI50 [3]: 2.22 µM (inactive)
- GI50 [4]: 2.03 µM (inactive)
- GI50 [5]: 2.86 µM (inactive)
- GI50 [6]: 1.63 µM (inactive)
- GI50 [7]: 5.38 µM (inactive)
- GI50 [8]: 1.73 µM (inactive)
- GI50 [9]: 0.12 µM (active)
- GI50 [10]: 1.45 µM (inactive)
- GI50 [11]: 3.61 µM (inactive)
- GI50 [12]: 1.88 µM (inactive)
- GI50 [13]: 0.94 µM (active)
- GI50 [14]: 1.46 µM (inactive)
- GI50 [15]: 2.15 µM (inactive)
- GI50 [16]: 0.767 µM (active)
- GI50 [17]: 2.53 µM (inactive)
- GI50 [18]: 1.51 µM
- GI50 [19]: 0.752 µM (active)
- GI50 [20]: 2.11 µM (inactive)
- GI50 [21]: 1.6 µM (inactive)
- GI50 [22]: 1.48 µM (inactive)
- GI50 [23]: 2.24 µM (inactive)
- GI50 [24]: 2.2 µM (inactive)
- GI50 [25]: 6.01 µM (inactive)
- GI50 [26]: 0.883 µM (active)
- GI50 [27]: 0.234 µM (active)
- GI50 [28]: 1.71 µM (inactive)
- GI50 [29]: 4.24 µM (inactive)
- GI50 [30]: 2.32 µM (inactive)
- GI50 [31]: 2.03 µM (inactive)
- GI50 [32]: 2.02 µM (inactive)
- GI50 [33]: 1.87 µM (inactive)
- GI50 [34]: 15.2 µM (inactive)
- GI50 [35]: 1.74 µM (inactive)
- GI50 [36]: 4.63 µM (inactive)
- GI50 [37]: 8.59 µM (inactive)
- GI50 [38]: 9.31 µM (inactive)
- GI50 [39]: 1.05 µM (active)
- GI50 [40]: 2.18 µM (inactive)
- GI50 [41]: 3.01 µM (inactive)
- GI50 [42]: 0.845 µM (active)
- GI50 [43]: 1.66 µM (inactive)
- GI50 [44]: 4.3 µM (inactive)
- GI50 [45]: 3.08 µM (inactive)
- GI50 [46]: 1.6 µM (inactive)
- GI50 [47]: 4.06 µM (inactive)
- GI50 [48]: 2.09 µM (inactive)
- GI50 [49]: 0.372 µM (active)
- GI50 [50]: 1.5 µM (inactive)
- GI50 [51]: 6.4 µM (inactive)
- GI50 [52]: 1.85 µM (inactive)
- GI50 [53]: 0.675 µM (active)
- GI50 [54]: 3.27 µM (inactive)
- GI50 [55]: 2.99 µM (inactive)

SMILES: NCCCCc1cc(O)c2c(c1O)C(=O)c1ccccc1C2=O
- GI50 [1]: 18.1 µM (inactive)
- GI50 [2]: 3.18 µM (inactive)
- GI50 [3]: 14.3 µM (inactive)
- GI50 [4]: 17.5 µM (inactive)
- GI50 [5]: 9.1 µM (inactive)
- GI50 [6]: 8 µM (inactive)
- GI50 [7]: 12.6 µM (inactive)
- GI50 [8]: 17.5 µM (inactive)
- GI50 [9]: 2.81 µM (inactive)
- GI50 [10]: 3.94 µM (inactive)
- GI50 [12]: 10.4 µM (inactive)
- GI50 [13]: 6 µM (inactive)
- GI50 [14]: 4.19 µM (inactive)
- GI50 [15]: 12.6 µM (inactive)
- GI50 [16]: 3.1 µM (inactive)
- GI50 [17]: 14.9 µM (inactive)
- GI50 [18]: 9.25 µM
- GI50 [19]: 4.75 µM (inactive)
- GI50 [20]: 12.4 µM (inactive)
- GI50 [21]: 5.09 µM (inactive)
- GI50 [22]: 6.75 µM (inactive)
- GI50 [23]: 15.4 µM (inactive)
- GI50 [24]: 17.4 µM (inactive)
- GI50 [25]: 15.4 µM (inactive)
- GI50 [26]: 5.41 µM (inactive)
- GI50 [27]: 3.77 µM (inactive)
- GI50 [28]: 11.2 µM (inactive)
- GI50 [29]: 5.05 µM (inactive)
- GI50 [30]: 12 µM (inactive)
- GI50 [31]: 12.6 µM (inactive)
- GI50 [32]: 22.6 µM (inactive)
- GI50 [33]: 16.5 µM (inactive)
- GI50 [34]: 14.9 µM (inactive)
- GI50 [35]: 8.39 µM (inactive)
- GI50 [36]: 14.2 µM (inactive)
- GI50 [37]: 14.1 µM (inactive)
- GI50 [38]: 10.5 µM (inactive)
- GI50 [39]: 5.41 µM (inactive)
- GI50 [40]: 10.6 µM (inactive)
- GI50 [41]: 17.5 µM (inactive)
- GI50 [56]: 10 µM (inactive)
- GI50 [42]: 6.53 µM (inactive)
- GI50 [43]: 13.8 µM (inactive)
- GI50 [44]: 13.3 µM (inactive)
- GI50 [45]: 22.2 µM (inactive)
- GI50 [46]: 6.73 µM (inactive)
- GI50 [47]: 18.2 µM (inactive)
- GI50 [48]: 12.9 µM (inactive)
- GI50 [49]: 7.59 µM (inactive)
- GI50 [50]: 14.4 µM (inactive)
- GI50 [51]: 4.56 µM (inactive)
- GI50 [57]: 14.7 µM (inactive)
- GI50 [52]: 6.75 µM (inactive)
- GI50 [53]: 7.13 µM (inactive)
- GI50 [54]: 17.1 µM (inactive)
- GI50 [55]: 9.75 µM (inactive)

SMILES: NC(=O)CC1(O)C=CC(=O)C=C1
- GI50 [1]: > 100 µM (inactive)
- GI50 [2]: 88.7 µM (inactive)
- GI50 [3]: > 100 µM (inactive)
- GI50 [4]: > 100 µM (inactive)
- GI50 [5]: > 100 µM (inactive)
- GI50 [6]: > 100 µM (inactive)
- GI50 [7]: > 100 µM (inactive)
- GI50 [8]: > 100 µM (inactive)
- GI50 [9]: > 100 µM (inactive)
- GI50 [10]: > 100 µM (inactive)
- GI50 [11]: > 100 µM (inactive)
- GI50 [12]: > 100 µM (inactive)
- GI50 [13]: > 100 µM (inactive)
- GI50 [14]: > 100 µM (inactive)
- GI50 [58]: > 100 µM (inactive)
- GI50 [15]: 41.9 µM (inactive)
- GI50 [16]: > 100 µM (inactive)
- GI50 [17]: > 100 µM (inactive)
- GI50 [18]: > 100 µM
- GI50 [19]: > 100 µM (inactive)
- GI50 [20]: > 100 µM (inactive)
- GI50 [21]: > 100 µM (inactive)
- GI50 [22]: > 100 µM (inactive)
- GI50 [23]: > 100 µM (inactive)
- GI50 [24]: > 100 µM (inactive)
- GI50 [25]: > 100 µM (inactive)
- GI50 [26]: > 100 µM (inactive)
- GI50 [27]: > 100 µM (inactive)
- GI50 [28]: > 100 µM (inactive)
- GI50 [29]: > 100 µM (inactive)
- GI50 [30]: > 100 µM (inactive)
- GI50 [31]: > 100 µM (inactive)
- GI50 [32]: > 100 µM (inactive)
- GI50 [33]: > 100 µM (inactive)
- GI50 [34]: > 100 µM (inactive)
- GI50 [35]: > 100 µM (inactive)
- GI50 [36]: > 100 µM (inactive)
- GI50 [37]: > 100 µM (inactive)
- GI50 [38]: > 100 µM (inactive)
- GI50 [39]: > 100 µM (inactive)
- GI50 [40]: > 100 µM (inactive)
- GI50 [41]: > 100 µM (inactive)
- GI50 [56]: 26.8 µM (inactive)
- GI50 [42]: > 100 µM (inactive)
- GI50 [44]: > 100 µM (inactive)
- GI50 [45]: > 100 µM (inactive)
- GI50 [46]: > 100 µM (inactive)
- GI50 [47]: > 100 µM (inactive)
- GI50 [48]: > 100 µM (inactive)
- GI50 [49]: > 100 µM (inactive)
- GI50 [50]: > 100 µM (inactive)
- GI50 [51]: > 100 µM (inactive)
- GI50 [57]: > 100 µM (inactive)
- GI50 [52]: > 100 µM (inactive)
- GI50 [53]: > 100 µM (inactive)
- GI50 [54]: > 100 µM (inactive)
- GI50 [55]: > 100 µM (inactive)
